For this assay, the target named is T1, P2X7 receptor (Mus musculus, UniProt Q9Z1M0).
T1 construct: gene P2rx7
T1 sequence (Q9Z1M0 1-595): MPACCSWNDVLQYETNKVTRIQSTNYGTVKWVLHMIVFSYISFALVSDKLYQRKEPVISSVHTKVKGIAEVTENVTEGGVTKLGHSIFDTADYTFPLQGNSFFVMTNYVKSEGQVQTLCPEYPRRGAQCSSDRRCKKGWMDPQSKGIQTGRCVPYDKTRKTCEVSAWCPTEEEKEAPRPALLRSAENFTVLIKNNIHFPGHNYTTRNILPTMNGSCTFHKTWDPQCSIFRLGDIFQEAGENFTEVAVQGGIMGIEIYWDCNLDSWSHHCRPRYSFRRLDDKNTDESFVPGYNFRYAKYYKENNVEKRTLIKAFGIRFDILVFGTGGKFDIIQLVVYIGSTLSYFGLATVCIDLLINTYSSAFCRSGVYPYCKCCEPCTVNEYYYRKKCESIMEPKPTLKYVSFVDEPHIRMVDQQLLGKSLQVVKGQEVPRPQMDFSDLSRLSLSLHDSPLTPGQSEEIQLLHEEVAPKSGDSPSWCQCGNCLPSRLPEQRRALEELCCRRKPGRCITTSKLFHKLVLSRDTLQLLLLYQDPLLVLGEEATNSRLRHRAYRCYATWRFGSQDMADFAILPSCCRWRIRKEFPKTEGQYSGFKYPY
The experiment in a line: agonist-induced intracellular calcium microfluorimetry and single-cell calcium imaging in mouse E14Tg2A ES cells (native receptor). The format is cell-based. In general terms: A change in cytosolic calcium serves as a functional read-out for many receptors and channels.

A word on the EC50: it is the concentration needed to bring the measured effect to its halfway point. In the case of `Nc1ncnc2c1ncn2[C@@H]1O[C@H](COP(=O)(O)OP(=O)(O)OP(=O)(O)O)[C@@H](O)[C@H]1O` [ATP], the concentration giving a half-maximal response (EC50) is 4.1 ± 1.8 µM.

For the origin of these results see article PMC4010452, “Modulation of Mouse Embryonic Stem Cell Proliferation and Neural Differentiation by the P2X7 Receptor” (PLoS ONE, 2014).
